Measured values taken from the supplement of paper PMC10307832.

Legend:
Test in all cases: relative viability (nuclei count vs DMSO), 5 days (fraction); higher = more cells survive
[1] = compound: Cn1cc(-c2cnn3c(N)c(Br)c([C@@H]4CCCNC4)nc23)cn1 + O=C(CCCCCCC(=O)Nc1ccccc1)NO [Vorinostat] (partner 1 µM)
Procedure, shortened: (§1)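 The day after seeding in 1536-well plates, lung cancer cell lines were treated by pin tool with a single drug, or with a fixed anchor-drug dose together with five library-drug doses (not always all listed) in √10 steps. After 5 days, a combined fix-and-stain solution (final 0.05% Triton X-100, 1% formaldehyde, 1 ug/ml Hoechst) was added. Nuclei counted on 4× images gave relative viability as treated counts over vehicle counts, reported as the median of duplicate plates.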

[2] = compound: Cn1cc(-c2cnn3c(N)c(Br)c([C@@H]4CCCNC4)nc23)cn1 + Nc1nc2[nH]cc(CCc3ccc(C(=O)N[C@@H](CCC(=O)O)C(=O)O)cc3)c2c(=O)[nH]1 [Pemetrexed] (partner 0.2 µM)
Procedure, shortened: as §1

[3] = compound: Cn1cc(-c2cnn3c(N)c(Br)c([C@@H]4CCCNC4)nc23)cn1 + CC1(C)CCC(c2ccc(Cl)cc2)=C(CN2CCN(c3ccc(C(=O)NS(=O)(=O)c4ccc(N[C@H](CCN5CCOCC5)CSc5ccccc5)c(S(=O)(=O)C(F)(F)F)c4)cc3)CC2)C1 [Navitoclax] (partner 0.5 µM)
Procedure, shortened: as §1

[4] = compound: Cn1cc(-c2cnn3c(N)c(Br)c([C@@H]4CCCNC4)nc23)cn1 + C[C@]1(O)C[C@@H](c2nc(-c3ccc4ccc(-c5ccccc5)nc4c3)c3c(N)nccn32)C1 [Linsitinib] (partner 1 µM)
Procedure, shortened: as §1

Cell Line | relative viability ([1]; first compound 0.05 µM) | relative viability ([1]; first compound 0.1581 µM) | relative viability ([1]; first compound 0.5 µM) | relative viability ([1]; first compound 1.581 µM) | relative viability ([1]; first compound 5 µM) | relative viability ([2]; first compound 0.05 µM) | relative viability ([2]; first compound 0.1581 µM) | relative viability ([2]; first compound 0.5 µM) | relative viability ([2]; first compound 1.581 µM) | relative viability ([2]; first compound 5 µM) | relative viability ([3]; first compound 0.05 µM) | relative viability ([3]; first compound 0.1581 µM) | relative viability ([3]; first compound 0.5 µM) | relative viability ([3]; first compound 1.581 µM) | relative viability ([3]; first compound 5 µM) | relative viability ([4]; first compound 0.05 µM) | relative viability ([4]; first compound 0.1581 µM) | relative viability ([4]; first compound 0.5 µM) | relative viability ([4]; first compound 1.581 µM) | relative viability ([4]; first compound 5 µM)
LU99A | 0.46 | 0.469 | 0.452 | 0.36 | 0.216 | 0.19 | 0.144 | 0.139 | 0.124 | 0.129 | 0.962 | 0.875 | 0.801 | 0.699 | 0.601 | 0.533 | 0.622 | 0.496 | 0.557 | 0.422
LXF-289 | 0.731 | 0.795 | 0.745 | 0.746 | 0.757 | 0.985 | 0.953 | 0.823 | 0.779 | 0.645 | 0.96 | 1.06 | 1.07 | 0.906 | 1.02 | 0.976 | 1.07 | 1.07 | 0.903 | 1.04
NCI-H23 | 0.547 | 0.508 | 0.424 | 0.206 | 0.125 | 0.582 | 0.539 | 0.504 | 0.275 | 0.19 | 1.01 | 1.04 | 0.72 | 0.602 | 0.342 | 0.575 | 0.642 | 0.466 | 0.449 | 0.244
NCI-H322M | 0.871 | 0.831 | 0.754 | 0.626 | 0.394 | 0.602 | 0.548 | 0.561 | 0.49 | 0.363 | 1.08 | 1.24 | 1.18 | 1.2 | 1.19 | 0.86 | 0.943 | 0.889 | 0.864 | 0.828
NCI-H441 | 0.759 | 0.896 | 0.721 | 0.429 | 0.326 | 0.261 | 0.283 | 0.254 | 0.277 | 0.25 | 0.534 | 0.857 | 0.671 |  | 0.696 | 0.802 | 0.346 | 0.461 | 0.56 | 0.563
NCI-H460 | 0.926 | 1.1 | 0.245 | 0.405 | 0.111 | 0.0569 | 0.0582 | 0.0504 | 0.0664 | 0.0552 | 1.04 | 1.32 | 0.972 | 0.749 | 0.448 | 0.611 | 0.68 | 0.728 | 0.217 | 0.183
NCI-H520 | 0.681 | 0.676 | 0.702 | 0.467 | 0.446 | 0.596 | 0.584 | 0.554 | 0.452 | 0.296 | 1.21 | 1.01 | 0.966 | 1.13 | 0.883 | 0.991 | 0.939 | 0.931 | 0.733 | 0.561
NCI-H596 | 0.517 | 0.602 | 0.624 | 0.356 | 0.455 | 0.481 | 0.462 | 0.534 | 0.371 | 0.326 | 1.01 | 1.02 | 1.13 | 0.847 | 0.904 | 1.07 | 1.11 | 1.01 | 0.986 | 1.16
NCI-H647 | 0.625 | 0.607 | 0.522 | 0.256 | 0.15 | 0.174 | 0.104 | 0.104 | 0.114 | 0.0596 | 1.25 | 1.11 | 0.902 | 0.853 | 0.406 | 1.12 | 1.24 | 0.85 | 0.796 | 0.42
NCI-H838 | 0.788 | 0.779 | 0.742 | 0.65 | 0.527 | 0.229 | 0.168 | 0.175 | 0.17 | 0.151 | 1.15 | 1.21 | 1.08 | 1.08 | 1.16 | 0.984 | 1.09 | 0.987 | 0.824 | 0.962
NCI-H1355 | 0.645 | 0.743 | 0.664 | 0.524 | 0.564 | 0.978 | 1.16 | 1.11 | 1.08 | 0.88 | 0.964 | 0.945 | 0.926 | 0.986 | 0.857 | 0.798 | 0.911 | 0.738 | 0.82 | 0.814
NCI-H1395 | 0.533 | 0.427 | 0.556 | 0.49 | 0.317 | 0.695 | 0.445 | 0.535 | 0.578 | 0.446 | 1.18 | 0.698 | 0.953 | 0.68 | 0.423 | 1.19 | 0.679 | 1.11 | 0.616 | 0.431
NCI-H1437 | 0.907 | 0.927 | 0.955 | 0.692 | 0.508 | 0.294 | 0.226 | 0.248 | 0.172 | 0.194 | 1.15 | 1.25 | 1.05 | 1.03 | 1.08 | 1.17 | 1.16 | 0.954 | 0.604 | 0.821
NCI-H1651 | 0.543 | 0.587 | 0.512 | 0.531 | 0.39 | 0.549 | 0.406 | 0.559 | 0.32 | 0.198 | 1.06 | 1.36 | 0.865 | 0.555 | 0.408 | 0.949 | 0.977 | 0.869 | 0.574 | 0.356
NCI-H1666 | 1.16 | 1.03 | 0.886 | 0.906 | 0.844 | 0.837 | 0.826 | 0.749 | 0.63 | 0.658 | 0.906 | 0.956 | 0.871 | 0.829 | 0.842 | 0.896 | 0.745 | 0.653 | 0.714 | 0.711
NCI-H1734 | 0.788 | 0.75 | 0.653 | 0.586 | 0.348 | 0.411 | 0.384 | 0.347 | 0.307 | 0.265 | 0.885 | 0.906 | 0.918 | 0.57 | 0.733 | 0.942 | 0.932 | 0.901 | 0.778 | 0.744
